Experimental data reported in article PMC8657793, “Synthesis, In Vitro and In Silico Anticancer Activity of New 4-Methylbenzamide Derivatives Containing 2,6-Substituted Purines as Potential Protein Kinases Inhibitors” (International Journal of Molecular Sciences, 2021).

Tested on: OKP-GS cells
Assay: Annexin-V/propidium iodide apoptosis assay by flow cytometry
Assay type: cell-based, human
Conditions: for Living cells: Figure 3; for Level of apoptosis compared with sorafnib / Number of necrotic cells: 72 h; for Number of necrotic cells: 5, 10 and 20 μM
Description: Apoptosis is a versatile and extremely effective pathway for cell death. This phenomenon can be caused by internal signals, such as genotoxic stress, or external signals, such as the binding of ligands to death receptors on the cell surface. The induction of apoptosis was studied by measuring the translocation of phosphatidylserine from the cytoplasmic to the extracellular side of the plasma membrane. OKP-GS cells were treated with compound 7 or 10 at 5, 10 and 20 μM for 72 h, after which annexin-V/propidium iodide (PI) binding was measured by flow cytometry (Figure 2).
Tumor cells were plated on a 6-well plate at a density of 100.000 per well for OKP-GS. Test compounds 7 and 10 were added at concentrations of 5, 10, and 20 μM for 72 h. Then, the cells were washed from the culture medium by centrifugation at 1000 rpm for 5 min, washed again with phosphate buffer, then the Annexin V-FITC and PI dyes from the Annexin 5A-FITC Kit (Beckman Coulter, Brea, CA, USA) were added, according to the manufacturer’s instructions. Colored suspensions were incubated for 15 min in the dark on ice and measured on a Cytomics FC500 Beckman Coulter flow cytometer (channels FL1 for Annexin V-FITC and FL4 for PI). Data were analyzed with Kaluza 2.0 Software (Beckman Coulter, Brea, CA, USA).

SMILES | Living cells (5 μM) | Living cells (10 μM) | Level of apoptosis compared with sorafnib (20 μM) | Living cells (20 μM) | Number of necrotic cells [%]
Cc1cn(-c2cc(NC(=O)c3ccc(Cn4cnc5c(Cl)nc(Cl)nc54)cc3)cc(C(F)(F)F)c2)cn1 [Compound 10, 4-((2,6-Dichloro-9H-purin-9-yl)methyl)-N-(3-(4-methyl-1H-imidazol-1-yl)-5-(trifluoromethyl)-phenyl)benzamide] | 70,22 | 44,89 | more than two-fold higher level of apoptosis | 21,99 | ≤ 7.3
O=C(Nc1cccc(C(F)(F)F)c1)c1ccc(Cn2cnc3c(Cl)nc(Cl)nc32)cc1 [Compound 7, 4-((2,6-Dichloro-9H-purin-9-yl)methyl)-N-(3-(trifluoromethyl)phenyl)benzamide] | 83,07 | 56,68 | more than two-fold higher level of apoptosis | 23,92 | ≤ 7.3
